The values that follow come from patent publication US8853490B2 (priority 2010, dated 2014).

Where two headings read alike, the source gives them in different places.

For assay [1], the system named is Diplodia maydis (DMA; isolate Warren-IN-96). The note with it: general statement on parent polypeptides; cited from earlier work.
Assay [2] deals with Fusarium graminearum (FGR; isolate 73B ISU). The note with it: general statement on parent polypeptides; cited from earlier work.
For assay [3], the system named is Colletotrichum graminicola (CGR; isolate Carroll-IA-99). Conditions: general statement on parent polypeptides; cited from earlier work.
Assay [4] relates to Diplodia maydis (DMA; isolate Warren-IN-96). The class given is cell-based.
Assay [5] has as its system Fusarium verticillioides (FVE; isolate MO33). The note with it: general statement on parent polypeptides; cited from earlier work.
In assay [6] the test system is Fusarium graminearum (FGR; isolate 73B ISU). It counts as cell-based.
Assay [7] concerns Colletotrichum graminicola (CGR; isolate Carroll-IA-99). The class given is cell-based.
For assay [8], the system named is Fusarium verticillioides (FVE; isolate MO33). It counts as cell-based.

With “LB-9827-1: parent antifungal polypeptide from the fungus Monascus ruber, previously disclosed in U.S. Pat. No. 7,306,946 (LSKFGGECSLKHNTCTYLKGGKNHVVNCGSAANKKCKSDRHHCEYDEHHKRVDCQTPV; Monascus ruber) [reference compound]”, the “antifungal activity against Diplodia maydis (DMA), in words” value in assay [1] is listed as “exhibit antifungal activity”. In addition, the “antifungal activity against Fusarium graminearum (FGR), in words” value in assay [2] is “exhibit antifungal activity”. The “antifungal activity against Colletotrichum graminicola (CGR), in words” value in assay [3] was “exhibit antifungal activity”. The figures for the “In vitro antifungal activity (IC50) against D. maydis (DMA)” value in assay [4] (high salt conditions) and in assay [4] (low salt conditions) were 12 ppm and 1.5 ppm, respectively. In addition, the “antifungal activity against Fusarium verticillioides (FVE), in words” value in assay [5] is “exhibit antifungal activity”. The “In vitro antifungal activity (IC50) against F. graminearum (FGR)” value (“In vitro antifungal activity (IC50) … (FGR)” for short) was 1.5 ppm in assay [6] (high salt conditions) and less than 0.1 ppm in assay [6] (low salt conditions). Further, the “In vitro antifungal activity (IC50) against C. graminicola (CGR)” value in assay [7] (high salt conditions) was 3 ppm; in assay [7] (low salt conditions) it was 1.5 ppm.

Consider “LB-5220: parent antifungal polypeptide isolated from Penicillium simplicissimum, previously disclosed in U.S. Pat. No. 7,306,946 (LKYTGTCTRANNQCKYKGQNDRDTFVKCPTFANKKCTRDGAPCSFDSYSRAVTCD; listed as Penicillium simplicissimum) [reference compound]”, for which the “antifungal activity against Diplodia maydis (DMA), in words” value in assay [1] is listed as “exhibit antifungal activity”. In assay [2], the “antifungal activity against Fusarium graminearum (FGR), in words” value is recorded as “exhibit antifungal activity”. For the same substance, the “antifungal activity against Colletotrichum graminicola (CGR), in words” value in assay [3] is “exhibit antifungal activity”. Moreover, the figures for the “In vitro antifungal activity (IC50) against D. maydis (DMA)” value in assay [4] (high salt conditions) and in assay [4] (low salt conditions) were 50 ppm and less than 0.1 ppm, respectively. The “antifungal activity against Fusarium verticillioides (FVE), in words” value in assay [5] is given as “exhibit antifungal activity”. Also, the “In vitro antifungal activity (IC50) … (FGR)” value is listed as more than 100 ppm in assay [6] (high salt conditions) and more than 10 ppm in assay [6] (low salt conditions).

Turning to “LB-9827-3B-25G5: LBNL variant generated through gene shuffling of the LB-9827-1 mature peptide coding sequence (LSKYGGECSRAHNTCTYRKGGKNQVVKCGTAANKKCKSDRHHCEYDDYHKRVDCQTPV; Synthetic peptide LB-9827-3B-25G5)”, the “In vitro antifungal activity (IC50) against F. verticillioides (FVE)” value (from here on “In vitro antifungal activity (IC50) … (FVE)”) in assay [8] was 3.8 ppm. For the same substance, the “In vitro antifungal activity (IC50) … (FGR)” value in assay [6] (high salt conditions) amounted to 2.5 ppm.

With “LB-9827-3B-25F2: LBNL variant generated through gene shuffling of the LB-9827-1 mature peptide coding sequence (LSKYGGECSREHNTCTYLKGGKNQVVACGSAANKKCKRDRHHCEYDDYHKTVDCQTPV; Synthetic peptide LB-9827-3B-25F2)”, the “In vitro antifungal activity (IC50) … (FVE)” value in assay [8] came to 15 ppm. In addition, the “In vitro antifungal activity (IC50) … (FGR)” value in assay [6] (high salt conditions) worked out at 2.5 ppm.

Take “LB-9827-3B-21E10: LBNL variant generated through gene shuffling of the LB-9827-1 mature peptide coding sequence (LSKYGGECSRAHNTCTYRKGGKNQVVNCPSAANKKCKSDRHHCEYDEYHKRVDCQTPV; Synthetic peptide LB-9827-3B-21E10)”: in assay [8], the “In vitro antifungal activity (IC50) … (FVE)” value is 30 ppm. Further, in assay [6] (high salt conditions), the “In vitro antifungal activity (IC50) … (FGR)” value was 1.25 ppm.

In the case of “LB-5220 (r2 6F2): LBNL variant generated through gene shuffling of the LB-5220 mature peptide coding sequence (LKYTGTCRRANNQCKYKGQNNRDTFVKCPTFANKKCTRDGEKCSFDSYSRAVTCD; LB-5220 (r2-6F2))”, the “In vitro antifungal activity (IC50) … (FGR)” value in assay [6] (high salt conditions) is given as more than 100 ppm; in assay [6] (low salt conditions), more than 10 ppm.

As to “LB-5220 (ps 1B4): LBNL variant generated through gene shuffling of the LB-5220 mature peptide coding sequence (LKYTGTCTRKNNQCKYRGQNNRDTFVKCPTFANKRCTRDGAPCSFDSYSRAVTCD; Synthetic peptide LB-5220 (ps-1B4))”, the figures for the “In vitro antifungal activity (IC50) … (FGR)” value in assay [6] (high salt conditions) and in assay [6] (low salt conditions) were more than 100 ppm and more than 10 ppm, respectively.

For “LB-9827-3A-11E4: LBNL variant generated through gene shuffling of the LB-9827-1 mature peptide coding sequence (LSKYGGECSRKHNTCTYKKGGKNQIVNCPTAANKRCKTDRHHCEYDEYHRRVDCQTPV; LB-9827-3A-11E4)”, the “In vitro antifungal activity (IC50) … (FVE)” value in assay [8] was found to be 15 ppm. The “In vitro antifungal activity (IC50) … (FGR)” value in assay [6] (high salt conditions) is reported as 0.63 ppm.

Turning to “LB-5220 (r2 5G7): LBNL variant generated through gene shuffling of the LB-5220 mature peptide coding sequence (LKYTGTCRRANNQCKYKGQNNRDTFVKCPTFANKKCTRDGAKCSFDSYSRAVTCD; Synthetic peptide LB-5220 (r2-5G7))”, the “In vitro antifungal activity (IC50) … (FGR)” value is listed as more than 100 ppm in assay [6] (high salt conditions) and more than 10 ppm in assay [6] (low salt conditions).
